Measured values reported in patent publication US6620828B2, “Thiazole compounds and pharmaceutical compositions for inhibiting protein kinases and methods for their use” (Agouron Pharmaceuticals, Inc., priority 1999, dated 2003).

Key:
Format in all cases: biochemical
FL-CHK1 = biological target: T1, FL-CHK1 (Homo sapiens, UniProt O14757); test: CHK1 assay; conditions: 20 μM; combinatorial library compounds
T1 construct: C-terminally His-tagged full-length human CHK1 (FL-CHK1); 6xHis (C); made in house; host or cells: baculovirus/insect cells
T1 sequence (O14757 1-476): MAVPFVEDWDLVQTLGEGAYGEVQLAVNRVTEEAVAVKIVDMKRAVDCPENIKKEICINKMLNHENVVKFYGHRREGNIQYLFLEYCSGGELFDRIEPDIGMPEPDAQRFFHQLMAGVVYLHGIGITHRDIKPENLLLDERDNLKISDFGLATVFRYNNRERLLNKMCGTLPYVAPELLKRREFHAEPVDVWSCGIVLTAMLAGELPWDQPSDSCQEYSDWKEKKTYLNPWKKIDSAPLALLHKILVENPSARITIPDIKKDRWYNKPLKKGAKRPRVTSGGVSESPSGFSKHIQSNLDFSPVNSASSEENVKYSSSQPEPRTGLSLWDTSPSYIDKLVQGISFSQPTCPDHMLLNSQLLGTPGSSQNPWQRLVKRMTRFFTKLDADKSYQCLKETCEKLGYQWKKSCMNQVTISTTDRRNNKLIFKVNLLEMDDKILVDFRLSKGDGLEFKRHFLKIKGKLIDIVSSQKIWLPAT
Method in brief: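 Full-length human CHK1 with C-terminal 6×His tag, made in baculovirus/insect cells, 10 nM, phosphorylating 0.125 mM Syntide-2 with 0.15 mM ATP in 50 mM Tris pH 7.5, 25 mM MgCl2, 400 mM NaCl. PK/LDH-coupled NADH oxidation read at 340 nm. Ki from initial rates over varied compound concentrations.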

[1] = biological target: T2, phosphorylated VEGF-R2Δ50 (FLVK-P) (Homo sapiens, UniProt P35968, DEL940-989/E990V); test: VEGF-R2 coupled spectrophotometric (FLVK-P) assay; conditions: read-out: VEGF % inhibition at 20 μM, 20 μM; combinatorial library compounds
T2 construct: VEGF-R2Δ50 contains residues 806-939 and 990-1171; made in house; host or cells: baculovirus/insect cells
Method in brief: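 Baculovirus-expressed human VEGF-R2Δ50 (residues 806-939/990-1171, E990V) was autophosphorylated with 3 mM ATP, 40 mM MgCl2 for 2 h at 4° C. ADP formation was coupled via PK/LDH to NADH oxidation, read at 340 nm, with 5.1 mM poly(E4Y1), 1 mM ATP, 25 mM MgCl2, Hepes pH 7.5. Ki came from activity across compound concentrations.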

CDK2/Cyclin A complex = CDK2/Cyclin A complex (Homo sapiens, UniProt P24941); test: CDK2/Cyclin A assay; conditions: 1.0 μM; combinatorial library compounds
Method in brief: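 Radiometric assay: 150 nM CDK2/cyclin A (insect-cell CDK2, truncated cyclin A) phosphorylates His-tagged Rb fragment (residues 386-928) with 25 μM ATP plus [32P]ATP, pH 7.4 HEPES, 2% DMSO, 30 °C for 20 min. Filter-captured product counted by phosphorimager; apparent Ki from competitive or tight-binding inhibition fits.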

CDK4/Cyclin D3 complex = biological target: T3, CDK4/Cyclin D3 complex (Homo sapiens, UniProt P11802); test: CDK4/Cyclin D assay; conditions: 1.0 μM; combinatorial library compounds
T3 construct: made in house; host or cells: insect cells co-infected with baculovirus vectors
Method in brief: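 Insect-cell-expressed CDK4/cyclin D3 (50 nM) phosphorylating His-tagged Rb fragment (residues 386-928) with 25 μM [^32P]ATP in HEPES pH 7.4, MgCl2, 2% DMSO; 20 min at 30 °C, EDTA stop. Filter-captured 32P by phosphorimager; apparent Ki from competitive or tight-binding inhibition fits.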

T3 sequence (P11802 whole entry): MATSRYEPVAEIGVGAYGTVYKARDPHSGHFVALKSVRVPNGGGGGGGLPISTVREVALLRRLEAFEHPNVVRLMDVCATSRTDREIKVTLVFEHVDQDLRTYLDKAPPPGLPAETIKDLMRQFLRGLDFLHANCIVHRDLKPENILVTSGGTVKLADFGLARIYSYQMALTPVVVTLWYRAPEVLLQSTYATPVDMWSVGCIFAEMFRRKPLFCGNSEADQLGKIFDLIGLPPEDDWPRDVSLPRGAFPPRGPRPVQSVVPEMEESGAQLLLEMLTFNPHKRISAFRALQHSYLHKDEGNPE
T3 sequence (P30281 whole entry partner): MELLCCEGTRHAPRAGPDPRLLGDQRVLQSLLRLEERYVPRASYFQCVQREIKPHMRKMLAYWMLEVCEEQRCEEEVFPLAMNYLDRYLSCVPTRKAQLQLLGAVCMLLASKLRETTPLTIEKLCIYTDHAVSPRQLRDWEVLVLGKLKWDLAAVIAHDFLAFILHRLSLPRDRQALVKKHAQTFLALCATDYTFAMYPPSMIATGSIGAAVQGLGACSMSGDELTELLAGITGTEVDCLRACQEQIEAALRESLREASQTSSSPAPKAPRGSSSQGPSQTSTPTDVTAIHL
T2 sequence (P35968 with tags, fused parts or gaps DEL940-989/E990V limits assumed): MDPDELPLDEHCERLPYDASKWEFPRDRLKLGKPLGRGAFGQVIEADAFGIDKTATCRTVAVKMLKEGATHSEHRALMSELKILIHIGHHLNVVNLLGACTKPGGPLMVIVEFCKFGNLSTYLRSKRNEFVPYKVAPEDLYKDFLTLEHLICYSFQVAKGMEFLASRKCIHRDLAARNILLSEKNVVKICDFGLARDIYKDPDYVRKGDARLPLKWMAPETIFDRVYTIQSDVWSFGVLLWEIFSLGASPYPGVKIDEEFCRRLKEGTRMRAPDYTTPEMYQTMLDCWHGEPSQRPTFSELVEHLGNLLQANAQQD

inhibition at 20 µM (FL-CHK1) | inhibition at 20 µM [1] | inhibition at 1 µM (CDK2/Cyclin A complex) | inhibition at 1 µM (CDK4/Cyclin D3 complex) | CHK1 % Inhibition at 20 μM (FL-CHK1) | Compound
5.5% | -4% | 8.7% | 49.4% |  | CN(C)c1ccc(Nc2nc(N)c(-c3nc(-c4ccc(OC(=O)c5ccccc5)cc4)cs3)s2)cc1
25.6% | 29% | 69.5% | 62.5% |  | COc1cc(OC)c(-c2csc(-c3sc(Nc4ccc(S(N)(=O)=O)cc4)nc3N)n2)c(O)c1Cl
4.4% | 27% | 18.5% | 10.9% |  | Nc1nc(Nc2ccc(S(N)(=O)=O)cc2)sc1-c1nc(-c2ccc(Cl)cc2)cs1
-4.7% | 5% | 4% | 2.4% |  | Cc1c(-c2csc(-c3sc(Nc4ccc(C(C)C)cc4)nc3N)n2)sc2ccccc12
17.5% | 38% | 12.4% | -5.3% |  | Nc1nc(Nc2ccc(S(N)(=O)=O)cc2)sc1-c1nc(-c2ccc(F)c(F)c2)cs1
11.6% | 19% | 5.2% | 74.4% |  | CC(C)c1ccc(Nc2nc(N)c(-c3nc(-c4ccc5c(c4)C(C)(C)CCC5(C)C)cs3)s2)cc1
16.6% | 2% | 11.7% | 15.2% |  | Cc1cc(-c2csc(-c3sc(Nc4ccc(N(C)C)cc4)nc3N)n2)ccc1Cl
37.5% | 26% | 29.1% | 82.6% |  | CN(C)c1ccc(Nc2nc(N)c(-c3nc(-c4c(Cl)cc(C(F)(F)F)cc4Cl)cs3)s2)cc1
-4.6% | 24% | 27.8% | 48.5% |  | CC(=O)Oc1ccccc1-c1csc(-c2sc(Nc3ccc(N(C)C)cc3)nc2N)n1
17.8% | 8% | 22.1% | 50.4% |  | CN(C)c1ccc(Nc2nc(N)c(-c3nc(-c4ccc([N+](=O)[O-])cc4)cs3)s2)cc1
 | 19% | 27.8% | 60.9% | 4.7% | COc1ccc(-c2csc(-c3sc(Nc4ccc(C(C)C)cc4)nc3N)n2)cc1 [drawing 462]
27% | 9% | 8.2% | 76.5% |  | Cc1c(F)cc(-c2csc(-c3sc(Nc4ccc(N(C)C)cc4)nc3N)n2)cc1Cl
5.2% | 3% | 36.7% | 45.2% |  | CN(C)c1ccc(Nc2nc(N)c(-c3nc(-c4cc(C(=O)C(Cl)(Cl)Cl)n(C)c4)cs3)s2)cc1
8.1% | 25% | 8.3% | 59.8% |  | Cc1onc(-c2ccccc2)c1-c1csc(-c2sc(Nc3ccc(N(C)C)cc3)nc2N)n1
17.4% | 16% | 14.6% | 57.8% |  | CCN(CC)c1ccc(-c2csc(-c3sc(Nc4ccc(N(C)C)cc4)nc3N)n2)cc1
0.7% | -3% | 10.1% | 37.8% |  | CC(C)c1ccc(Nc2nc(N)c(-c3nc(-c4cc(C(=O)C(Cl)(Cl)Cl)n(C)c4)cs3)s2)cc1
-4.7% | 13% | 2.4% | 50.4% |  | CC(C)c1ccc(Nc2nc(N)c(-c3nc(-c4cc(-c5ccccc5)no4)cs3)s2)cc1
38.9% | 51% | 31.8% | 72.8% |  | COc1cc(OC)c(-c2csc(-c3sc(Nc4ccc(C(C)C)cc4)nc3N)n2)c(O)c1Cl
7.1% | 7% | 5.9% | 58.4% |  | CC(C)c1ccc(Nc2nc(N)c(-c3nc(-c4ccc(C#N)cc4)cs3)s2)cc1

inhibition at 20 µM (FL-CHK1) | inhibition at 20 µM [1] | inhibition at 1 µM (CDK2/Cyclin A complex) | inhibition at 1 µM (CDK4/Cyclin D3 complex) | CHK1 % Inhibition at 20 μM (FL-CHK1) | Compound
23.8% | 14% | 22% | 50.6% |  | CC(C)c1ccc(Nc2nc(N)c(-c3nc(-c4ccc5c(c4)OCCO5)cs3)s2)cc1
-4.5% | 9% | 13.4% | 33.7% |  | CCOC(=O)c1cc(-c2csc(-c3sc(Nc4ccc(N(C)C)cc4)nc3N)n2)on1
12% | 5% | 14.6% | 48.1% |  | CC(C)c1ccc(Nc2nc(N)c(-c3nc(-c4cccc(Br)c4)cs3)s2)cc1
31.6% | 28% | 23.8% | 62.7% |  | CC(C)c1ccc(Nc2nc(N)c(-c3nc(-c4ccc(O)c(O)c4)cs3)s2)cc1
26% | 14% | 24.6% | 81.8% |  | COc1ccc2nc(-c3ccccc3)c(-c3csc(-c4sc(Nc5ccc(N(C)C)cc5)nc4N)n3)cc2c1
17.5% | -9% | 25% | 17% |  | CC(C)(C)c1cc(-c2csc(-c3sc(Nc4ccc(S(N)(=O)=O)cc4)nc3N)n2)cc(C(C)(C)C)c1O
-1.6% | 9% | 29% | 2.3% |  | Nc1nc(Nc2ccc(S(N)(=O)=O)cc2)sc1-c1nc(-c2ccccc2OC(=O)c2ccccc2)cs1
39.8% | 48% | 16.1% | 80.7% |  | CC(C)c1ccc(Nc2nc(N)c(-c3nc(-c4ccc(F)cc4)cs3)s2)cc1
-12.8% | 14% | 6.6% | 44.3% |  | CC(=O)Oc1ccccc1-c1csc(-c2sc(Nc3ccc(C(C)C)cc3)nc2N)n1
6% | -4% | 17.8% | 35.6% |  | CC(C)c1ccc(Nc2nc(N)c(-c3nc(-c4ccc([N+](=O)[O-])cc4)cs3)s2)cc1
26.9% | 19% | 17.3% | 76.1% |  | CN(C)c1ccc(Nc2nc(N)c(-c3nc(-c4ccc(Cl)cc4Cl)cs3)s2)cc1
15.9% | 2% | 8.3% | -28% |  | Cc1cc(-c2csc(-c3sc(Nc4ccc(S(N)(=O)=O)cc4)nc3N)n2)ccc1Cl
-4.3% | 25% | 9.3% | 72% |  | CC(C)c1ccc(Nc2nc(N)c(-c3nc(-c4csc5ccccc45)cs3)s2)cc1
3.3% | -2% | 21.4% | 25% |  | Nc1nc(Nc2ccc(S(N)(=O)=O)cc2)sc1-c1nc(-c2ccc(-c3ccc(Cl)cc3Cl)o2)cs1
-5.7% | 9% | 15% | 28.7% |  | CCOC(=O)c1cc(-c2csc(-c3sc(Nc4ccc(C(C)C)cc4)nc3N)n2)on1
18.7% | 21% | 18.9% | 16% |  | COc1ccccc1-c1csc(-c2sc(Nc3ccc(S(N)(=O)=O)cc3)nc2N)n1 [drawing 394]
0.8% | 5% | 24% | 29.6% |  | CN(C)c1ccc(Nc2nc(N)c(-c3nc(-c4cc(-c5ccccc5)no4)cs3)s2)cc1
32.2% | 16% | 17.7% | 63% |  | CC(C)c1ccc(Nc2nc(N)c(-c3nc(-c4ccccc4[N+](=O)[O-])cs3)s2)cc1
